According to patent publication US8247211B2, “Glycopeptide antibiotics” (American Cyanamid Company, priority 2001, dated 2012):
Converted amounts (≈) assume the structure as drawn.

Assays:
Test in all cases: In vitro antibacterial evaluation: minimum inhibitory concentration (MIC), broth dilution method
Format in all cases: cell-based
[1] = test system: Escherichia coli
In short: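 Following NCCLS approved standard M7-A2, compounds are serially diluted from 64 to 0.06 μg/mL in Muller-Hinton II […] and inoculated at 5×10^5 CFU/mL; the MIC is the minimum concentration at which growth is inhibited.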

[2] = test system: Enterococcus sp.
In short: (§1)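 Broth dilution per NCCLS M7-A2 in Muller-Hinton II […], inoculum 5×10^5 CFU/mL, antibiotic tested over 64-0.06 μg/mL. MIC is taken as the lowest concentration that inhibits growth. Panel includes recent clinical isolates resistant to methicillin, penicillin and/or vancomycin.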

[3] = test system: Streptococcus sp.
In short: as §1

[4] = test system: Staphylococcus sp.; conditions: broth dilution, 18 hours at 35° C.
In short: as §1

CC(c1ccccc1)C1NC(=O)CNC(=O)C(CO)NC(=O)C(C(O)C2CNC(=N)N2C2OC(CO)C(O)C(O)C2O)NC(=O)C(C(O)C2CNC(=N)N2)NC(=O)C(Cc2ccc(OC3OC(CO)C(OC4OC5COC(c6ccc(C(C)(C)C)cc6)OC5C(O)C4O)C(O)C3O)cc2)NC1=O (stereo not drawn) [Example 147, Cyclo[glycyl-β-methylphenylalanyl-O-[4-O-[4,6-O-(4-tert-butylbenzylidene)hexonyranosyl]-hexopyranosyl]tyrosyl-3-(2-iminoimidazolidin-4-yl)seryl-3-(3-hexopyranosyl-2-iminoimidazolidin-4-yl)serylseryl]]
MIC Escherichia coli (GC 4559) ([1]; strain GC 4559): 64 µg/mL (≈ 44.5 µM) | MIC Escherichi coli (GC 4560) ([1]; strain GC 4560): 0.5 to 2 µg/mL | MIC Enterococcus faecalis (ATCC 29212) ([2]; strain ATCC 29212): 0.5 to 2 µg/mL | MIC Enterococcus faecalis (GC 2242) ([2]; strain GC 2242): 0.5 to 1 µg/mL | MIC Enterococcus faecium (GC 2243) ([2]; strain GC 2243): 1 to 2 µg/mL | MIC Enterococcus faecalis (GC 2691) ([2]; strain GC 2691): 0.5 µg/mL (≈ 0.347 µM) | MIC Enterococcus faecalis (GC 3059) ([2]; strain GC 3059): 0.5 µg/mL (≈ 0.347 µM) | MIC Enterococcus faecalis (GC 4552) ([2]; strain GC 4552): 0.5 to 1 µg/mL | MIC Enterococcus faecalis (GC 4553) ([2]; strain GC 4553): 0.5 to 1 µg/mL | MIC Enterococcus faecalis (GC 4554) ([2]; strain GC 4554): 0.5 to 1 µg/mL | MIC Enterococcus faecium (GC 4556) ([2]; strain GC 4556): 2 µg/mL (≈ 1.39 µM) | MIC Enterococcus faecium (GC 4557) ([2]; strain GC 4557): 1 to 2 µg/mL | MIC Enterococcus avium (GC 4558) ([2]; strain GC 4558): 0.5 to 2 µg/mL | MIC Enterococcus faecalis (GC 6189) ([2]; strain GC 6189): 0.5 µg/mL (≈ 0.347 µM) | MIC Streptococcus pyogenes (GC 4563) ([3]; strain GC 4563): >0.12 µg/mL | MIC Streptococcus agalactiae (GC 4564) ([3]; strain GC 4564): <0.12 µg/mL | MIC Streptococcus pyogenes (ID-3187) ([3]; strain ID-3187): <0.5 µg/mL | MIC Coagulase Negative Staphylococcus (GC 4547) ([4]; 5×10^5 CFU/mL): 1 to 2 µg/mL | MIC Coagulase Negative Staphylococcus (GC 4548) ([4]; 5×10^5 CFU/mL): <0.5 to 1 µg/mL | MIC Coagulase Negative Staphylococcus (GC 4549) ([4]; 5×10^5 CFU/mL): <0.5 to 1 µg/mL | MIC Coagulase Negative Staphylococcus (GC 4551) ([4]; 5×10^5 CFU/mL): 1 µg/mL (≈ 0.695 µM) | MIC Coagulase Negative Staphylococcus (GC 6257) ([4]; 5×10^5 CFU/mL): 2 µg/mL (≈ 1.39 µM) | MIC Coagulase Negative Staphylococcus (ID-3941) ([4]; 5×10^5 CFU/mL): 1 µg/mL (≈ 0.695 µM) | MIC Staphylococcus aureus (GC 3051) ([4]; 5×10^5 CFU/mL): 0.5 µg/mL (≈ 0.347 µM) | MIC Staphylococcus aureus (GC 3053) ([4]; 5×10^5 CFU/mL): 0.5 µg/mL (≈ 0.347 µM) | MIC Staphylococcus aureus (GC 4542) ([4]; 5×10^5 CFU/mL): 0.5 to 1 µg/mL | MIC Staphylococcus aureus (GC 4544) ([4]; 5×10^5 CFU/mL): 0.5 to 1 µg/mL | MIC Staphylococcus aureus (GC 4545) ([4]; 5×10^5 CFU/mL): 0.5 to 1 µg/mL | MIC Staphylococcus aureus-SMITH (GC 4543) ([4]; 5×10^5 CFU/mL): 0.5 to 1 µg/mL | MIC Staphylococcus haemolyticus (GC 4546) ([4]; 5×10^5 CFU/mL): 1 to 2 µg/mL | MIC Staphylococcus aureus (GC 3051) ([4]; strain GC 3051): 0.5 µg/mL (≈ 0.347 µM) | MIC Staphylococcus aureus (GC 3053) ([4]; strain GC 3053): 0.5 µg/mL (≈ 0.347 µM) | MIC Staphylococcus aureus (GC 4542) ([4]; strain GC 4542): 0.5 to 1 µg/mL | MIC Staphylococcus aureus-SMITH (GC 4543) ([4]; strain GC 4543): 0.5 to 1 µg/mL | MIC Staphylococcus aureus (GC 4544) ([4]; strain GC 4544): 0.5 to 1 µg/mL | MIC Staphylococcus aureus (GC 4545) ([4]; strain GC 4545): 0.5 to 1 µg/mL | MIC Staphylococcus haemolyticus (GC 4546) ([4]; strain GC 4546): 1 to 2 µg/mL | MIC Coagulase Negative Staphylococcus (GC 4547) ([4]; strain GC 4547): 1 to 2 µg/mL | MIC Coagulase Negative Staphylococcus (GC 4548) ([4]; strain GC 4548): <0.5 to 1 µg/mL | MIC Coagulase Negative Staphylococcus (GC 4549) ([4]; strain GC 4549): <0.5 to 1 µg/mL | MIC Coagulase Negative Staphylococcus (GC 4551) ([4]; strain GC 4551): 1 µg/mL (≈ 0.695 µM) | MIC Coagulase Negative Staphylococcus (GC 6257) ([4]; strain GC 6257): 2 µg/mL (≈ 1.39 µM) | MIC Coagulase Negative Staphylococcus (ID-3941) ([4]; strain ID-3941): 1 µg/mL (≈ 0.695 µM)
